Measured values reported in US20240150368A1, “ULK INHIBITORS AND METHODS OF USE THEREOF” (Deciphera Pharmaceuticals, LLC, priority 2022, published 2024).

Tests used:
ULK1 kinase = target: T1, ULK1 kinase (Homo sapiens, UniProt O75385, E37A/K38A); experiment: Biochemical assay for ULK1 (coupled pyruvate kinase/lactate dehydrogenase assay); conditions: 1 mM ATP, 0.1 nM ULK1; read-out: ULK1 (inhibition of biochemical activity), IC50
T1 construct: (residues 1-283; ID NO: 1); purchased Beryllium
T1 sequence (O75385 1-283 E37A/K38A): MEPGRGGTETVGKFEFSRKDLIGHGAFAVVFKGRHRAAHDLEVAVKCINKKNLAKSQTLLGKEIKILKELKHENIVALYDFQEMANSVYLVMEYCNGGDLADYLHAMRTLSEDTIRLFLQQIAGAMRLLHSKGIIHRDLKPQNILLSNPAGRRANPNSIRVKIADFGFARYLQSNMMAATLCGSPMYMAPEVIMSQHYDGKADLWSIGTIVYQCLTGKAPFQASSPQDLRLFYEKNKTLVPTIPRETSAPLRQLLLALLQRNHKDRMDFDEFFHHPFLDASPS
Procedure, shortened: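 IC50 values were fitted to percent inhibition, normalised with no-compound and known-inhibitor controls, using rates from 2–3 h of a 6 h read at 30 °C. ADP was coupled through pyruvate kinase/lactate dehydrogenase to NADH loss at 340 nm.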

ULK2 kinase = target: T2, ULK2 kinase (Homo sapiens, UniProt Q8IYT8); experiment: Biochemical assay for ULK2 (coupled pyruvate kinase/lactate dehydrogenase assay); conditions: 1 mM ATP, 1 nM ULK2; read-out: ULK2 (inhibition of biochemical activity), IC50
T2 construct: (residues 1-306 with N-terminal GST and His tag; ID NO: 2); purchased Signal Chem U02-11G
Procedure, shortened: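 Continuous PK/LDH-coupled NADH oxidation assay (A340) with 1 nM ULK2, 200 μM ULKtide and 1 mM ATP in Tris pH 7.5, 15 mM MgCl2, 1% DMSO, read 6 h at 30° C. Rates from the 2-3 h window converted to percent inhibition against no-compound and known-inhibitor controls; IC50 by four-parameter sigmoidal fit.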

[1] = test system: ULK kinase substrate ATG13 (pS318-ATG13) in MiaPaCa-2 cells; experiment: pATG13 levels of mutant KRas MiaPaCa-2 cells after treatment with ULK inhibitors in combination with trametinib (ELISA); type: cell-based, human
Procedure, shortened: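 MiaPaCa-2 cells grown overnight, then dosed with test compound titration plus trametinib (final 250 nM) or DMSO, overnight at 37° C. Lysate pS318-ATG13 measured by sandwich ELISA (total ATG13 capture, biotinylated pS318 detection, HRP/TMB, A450 minus A540); % phosphorylation vs control wells fitted to IC50.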

T2 sequence (Q8IYT8 with tags, fused parts or gaps): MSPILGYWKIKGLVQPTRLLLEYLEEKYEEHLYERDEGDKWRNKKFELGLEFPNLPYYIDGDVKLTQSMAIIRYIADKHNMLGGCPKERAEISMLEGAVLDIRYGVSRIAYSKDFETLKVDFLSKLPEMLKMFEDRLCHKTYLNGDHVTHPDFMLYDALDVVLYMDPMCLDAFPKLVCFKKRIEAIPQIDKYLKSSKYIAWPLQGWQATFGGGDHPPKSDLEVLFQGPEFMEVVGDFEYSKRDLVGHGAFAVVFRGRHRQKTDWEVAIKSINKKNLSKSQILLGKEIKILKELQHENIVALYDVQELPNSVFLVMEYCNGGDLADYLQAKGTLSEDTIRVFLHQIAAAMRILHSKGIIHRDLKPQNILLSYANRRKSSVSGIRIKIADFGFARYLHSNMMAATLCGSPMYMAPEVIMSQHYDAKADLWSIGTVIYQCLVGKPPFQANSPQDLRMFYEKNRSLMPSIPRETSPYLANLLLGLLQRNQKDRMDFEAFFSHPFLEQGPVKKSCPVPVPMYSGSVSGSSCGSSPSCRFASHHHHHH

IC50 (ULK1 kinase) [nM]	IC50 (ULK2 kinase) [nM]	IC50 [1] [nM]	SMILES
≤ 10	≤ 10	≤ 100	CC/C(Nc1cnn(C(C)C)c1)=C1/C(=O)Nc2ccc(C(=O)NCCC(F)(F)F)cc21 [Example 166]
≤ 10	≤ 10	≤ 100	CC/C(Nc1cnn(C2CCOCC2)c1)=C1/C(=O)Nc2ccc(C(=O)NCC(C)(C)F)cc21 [Example 173]

More lines, now with the values behind:

SMILES	IC50 (ULK1 kinase) [nM]	IC50 (ULK2 kinase) [nM]	IC50 [1] [nM]
CC/C(Nc1cnn(CC(F)(F)F)c1)=C1/C(=O)Nc2ccc(C(=O)NCC(C)(C)F)cc21 [Example 160]	≤ 10	10 to 100	≤ 100
CC/C(Nc1cnn(CC(F)F)c1)=C1/C(=O)Nc2ccc(C(=O)NCC(C)(C)F)cc21 [Example 161]	≤ 10	10 to 100	≤ 100
CC/C(Nc1cnn(C(C)C)c1)=C1/C(=O)Nc2ccc(C(=O)NCC3(C)CCOC3)cc21 (stereo not drawn) [Example 168]	10 to 100	10 to 100	100 to 300
CC/C(Nc1cnn(C(F)(F)F)c1)=C1/C(=O)Nc2ccc(C(=O)NCC(C)C)cc21 [Example 169]	10 to 100	10 to 100	100 to 300
